The structures appear in SMILES notation.

The test system of one assay is Daudi cells (AID positive). Kind of assay: Compound primary screening: cell death in AID positive Daudi cells (Cell-Titer Glo, Day 7). The class given is cell-based. As to conditions: Homo sapiens, 168 h; Daudi cells, AID positive; cell death on Day 7, Cell-Titer Glo; read-out: Cellular activity in AID + (Daudi). A digest of the protocol:
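AID-positive Daudi cells were seeded at 1250 cells per well and treated with serially diluted compound delivered from a DMSO/media master plate. Cultures were incubated at 37 °C, and cell death was measured on Day 7 with Cell-Titer Glo luminescence.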
Regarding `CC(C)(C)NS(=O)(=O)c1cc(CC(=O)NCc2ccccc2)ccc1-c1cnc([C@H]2CC[C@H](NC(=O)OC3COC3)CC2)s1` [Compound 98, oxetan-3-yl trans-N-[4-[5-[4-[2-(benzylamino)-2-oxo-ethyl]-2-(tert-butylsulfamoyl)phenyl]thiazol-2-yl]cyclohexyl]carbamate], the EC50 is under 100 nM.
Take `CCNS(=O)(=O)c1cc(OCCC(C)C)ccc1-c1cnc([C@H]2CC[C@H](NC(=O)OC(C)C)CC2)s1` [Compound 99, isopropyl trans-N-[4-[5-[2-(ethylsulfamoyl)-4-isopentyloxy-phenyl]thiazol-2-yl]cyclohexyl]carbamate]: the EC50 fell in the range of 100 to 1000 nM.
Still for that read-out and setting: the same measure for `CCNS(=O)(=O)c1cc(OCCC(C)C)ccc1-c1cnc([C@H]2CC[C@H](NC(=O)OC3COC3)CC2)s1` [Compound 100, oxetan-3-yl trans-N-[4-[5-[2-(ethylsulfamoyl)-4-isopentyloxy-phenyl]thiazol-2-yl]cyclohexyl]carbamate]: 100 to 1000 nM; for `CC(C)CCOc1ccc(-c2cnc([C@H]3CC[C@H](NC(=O)OC(C)C)CC3)s2)c(S(=O)(=O)NC(C)(C)C)c1` [Compound 101, isopropyl trans-N-[4-[5-[2-(tert-butylsulfamoyl)-4-isopentyloxy-phenyl]thiazol-2-yl]cyclohexyl]carbamate]: 1000 to 10000 nM.
Same read-out and setting: the same measure for `CC(C)CCOc1ccc(-c2cnc([C@H]3CC[C@H](NC(=O)OC4COC4)CC3)s2)c(S(=O)(=O)NC(C)(C)C)c1` [Compound 102, oxetan-3-yl trans-N-[4-[5-[2-(tert-butylsulfamoyl)-4-isopentyloxy-phenyl]thiazol-2-yl]cyclohexyl]carbamate]: 1000 to 10000 nM; for `CCNS(=O)(=O)c1cc(Nc2nccn2C)ccc1-c1cnc([C@H]2CC[C@H](NC(=O)OC(C)C)CC2)s1` [Compound 105, isopropyl trans-N-[4-[5-[2-(ethylsulfamoyl)-4-[(1-methylimidazol-2-yl)amino]phenyl]thiazol-2-yl]cyclohexyl]carbamate]: under 100 nM.
Same read-out and setting: in the case of `CCNS(=O)(=O)c1cc(Nc2nccn2C)ccc1-c1cnc([C@H]2CC[C@@H](NC(=O)OC(C)C)CC2)s1` [Compound 106, isopropyl cis-N-[4-[5-[2-(ethylsulfamoyl)-4-[(1-methylimidazol-2-yl)amino]phenyl]thiazol-2-yl]cyclohexyl]carbamate] it was under 100 nM; in that of `CCNS(=O)(=O)c1cc(Nc2nccn2CC(C)C)ccc1-c1cnc([C@H]2CC[C@H](NC(=O)OC(C)C)CC2)s1` [Compound 107, isopropyl trans-N-[4-[5-[2-(ethylsulfamoyl)-4-[(1-isobutylimidazol-2-yl)amino]phenyl]thiazol-2-yl]cyclohexyl]carbamate], under 100 nM; in that of `CCNS(=O)(=O)c1cc(N)ccc1-c1cnc([C@H]2CC[C@H](NC(=O)OC3CC3)CC2)s1` [Compound 108, cyclopropyl trans-N-[4-[5-[4-amino-2-(ethylsulfamoyl)phenyl]thiazol-2-yl]cyclohexyl]carbamate], under 100 nM.
On to `CC(C)OC(=O)N[C@H]1CC[C@@H](c2ncc(-c3ccc(Nc4ncc[nH]4)cc3S(=O)(=O)NC(C)(C)C)s2)CC1` [Compound 110, isopropyl cis-N-[4-[5-[2-(tert-butylsulfamoyl)-4-(1H-imidazol-2-ylamino)phenyl]thiazol-2-yl]cyclohexyl]carbamate], for which the EC50 is 100 to 1000 nM.
For `CCNS(=O)(=O)c1cc(Nc2cc(C(C)C)ccn2)ccc1-c1cnc([C@H]2CC[C@H](NC(=O)OC(C)C)CC2)s1` [Compound 111, isopropyl trans-N-[4-[5-[2-(ethylsulfamoyl)-4-[(4-isopropyl-2-pyridyl)amino]phenyl]thiazol-2-yl]cyclohexyl]carbamate], the EC50 lay in the range of 100 to 1000 nM.
Same read-out and setting: the same measure for `CCNS(=O)(=O)c1cc(Nc2cccc(C(C)C)n2)ccc1-c1cnc([C@H]2CC[C@H](NC(=O)OC(C)C)CC2)s1` [Compound 112, isopropyl trans-N-[4-[5-[2-(ethylsulfamoyl)-4-[(6-isopropyl-2-pyridyl)amino]phenyl]thiazol-2-yl]cyclohexyl]carbamate]: under 100 nM; for `CCNS(=O)(=O)c1cc(Nc2ccc(C(C)C)cn2)ccc1-c1cnc([C@H]2CC[C@H](NC(=O)OC(C)C)CC2)s1` [Compound 113, isopropyl trans-N-[4-[5-[2-(ethylsulfamoyl)-4-[(5-isopropyl-2-pyridyl)amino]phenyl]thiazol-2-yl]cyclohexyl]carbamate]: under 100 nM; for `CCNS(=O)(=O)c1cc(N2CC(OC(C)C)C2)ccc1-c1cnc([C@H]2CC[C@H](NC(=O)OC(C)C)CC2)s1` [Compound 114, isopropyl trans-N-[4-[5-[2-(ethylsulfamoyl)-4-[3-isopropoxyazetidin-1-yl]phenyl]thiazol-2-yl]cyclohexyl]carbamate]: 100 to 1000 nM.
Same read-out and setting: in the case of `CCNS(=O)(=O)c1cc(Nc2nnc(C(C)C)s2)ccc1-c1cnc(C2CCC(NC(=O)OC(C)C)CC2)s1` (stereo not drawn) [Compound 115, isopropyl trans-N-[4-[5-[2-(ethylsulfamoyl)-4-[(5-isopropyl-1,3,4-thiadiazol-2-y)amino]phenyl]thiazol-2-yl]cyclohexyl]carbamate] it was under 100 nM; in that of `CCNS(=O)(=O)c1cc(NC2(C)COC2)ccc1-c1cnc([C@H]2CC[C@H](NC(=O)OC(C)C)CC2)s1` [Compound 116, isopropyl trans-N-[4-[5-[2-(ethylsulfamoyl)-4-[(3-methyloxetan-3-yl)amino]phenyl]thiazol-2-yl]cyclohexyl]carbamate], under 100 nM; in that of `CCNS(=O)(=O)c1cc(N(C)c2nccn2C)ccc1-c1cnc([C@H]2CC[C@H](NC(=O)OC(C)C)CC2)s1` [Compound 117, isopropyl trans-N-[4-[5-[2-(ethylsulfamoyl)-4-[methyl(1-methyl-1H-imidazol-2-yl)amino]phenyl]thiazol-2-yl]cyclohexyl]carbamate], 100 to 1000 nM.
For `CCNS(=O)(=O)c1cc(Nc2nnco2)ccc1-c1cnc([C@H]2CC[C@H](NC(=O)OC(C)C)CC2)s1` [Compound 118, isopropyl trans-N-[4-[5-[2-(ethylsulfamoyl)-4-[(1,3,4-oxadiazol-2-yl)amino]phenyl]thiazol-2-yl]cyclohexyl]carbamate], the EC50 was in the range of 100 to 1000 nM.
`CCNS(=O)(=O)c1cc(Nc2nncs2)ccc1-c1cnc([C@H]2CC[C@H](NC(=O)OC(C)C)CC2)s1` [Compound 119, isopropyl trans-N-[4-[5-[2-(ethylsulfamoyl)-4-[(1,3,4-thiadiazol-2-yl)amino]phenyl]thiazol-2-yl]cyclohexyl]carbamate]: the EC50 was under 100 nM.
Still for that read-out and setting: the same measure for `CCNS(=O)(=O)c1cc(Nc2cn[nH]c2)ccc1-c1cnc([C@H]2CC[C@H](NC(=O)OC(C)C)CC2)s1` [Compound 120, isopropyl trans-N-[4-[5-[2-(ethylsulfamoyl)-4-[(1H-pyrazol-4-yl)amino]phenyl]thiazol-2-yl]cyclohexyl]carbamate]: under 100 nM; for `CCNS(=O)(=O)c1cc(Nc2ccn[nH]2)ccc1-c1cnc([C@H]2CC[C@H](NC(=O)OC(C)C)CC2)s1` [Compound 121, isopropyl trans-N-[4-[5-[2-(ethylsulfamoyl)-4-[(1H-pyrazol-5-yl)amino]phenyl]thiazol-2-yl]cyclohexyl]carbamate]: under 100 nM.
On the same count and under the same terms, in the case of `CCNS(=O)(=O)c1cc(Nc2cnccn2)ccc1-c1cnc([C@H]2CC[C@H](NC(=O)OC(C)C)CC2)s1` [Compound 122, isopropyl trans-N-[4-[5-[2-(ethylsulfamoyl)-4-[(pyrazin-2-yl)amino]phenyl]thiazol-2-yl]cyclohexyl]carbamate] it was under 100 nM; in that of `CCNS(=O)(=O)c1cc(Nc2cccnn2)ccc1-c1cnc([C@H]2CC[C@H](NC(=O)OC(C)C)CC2)s1` [Compound 123, isopropyl trans-N-[4-[5-[2-(ethylsulfamoyl)-4-[(pyridazin-3-yl)amino]phenyl]thiazol-2-yl]cyclohexyl]carbamate], under 100 nM.
Turning to `CCNS(=O)(=O)c1cc(Nc2ccncn2)ccc1-c1cnc([C@H]2CC[C@H](NC(=O)OC(C)C)CC2)s1` [Compound 124, isopropyl trans-N-[4-[5-[2-(ethylsulfamoyl)-4-[(pyrimidin-4-yl)amino]phenyl]thiazol-2-yl]cyclohexyl]carbamate], the EC50 is under 100 nM.
The same measure, in the same setting: the same measure for `CCNS(=O)(=O)c1cc(Nc2ccncc2)ccc1-c1cnc([C@H]2CC[C@H](NC(=O)OC(C)C)CC2)s1` [Compound 125, isopropyl trans-N-[4-[5-[2-(ethylsulfamoyl)-4-[(pyridin-4-yl)amino]phenyl]thiazol-2-yl]cyclohexyl]carbamate]: under 100 nM.
On the same count and under the same terms, the same measure for `CCNS(=O)(=O)c1cc(Nc2ccccn2)ccc1-c1cnc([C@H]2CC[C@H](NC(=O)OC(C)C)CC2)s1` [Compound 126, isopropyl trans-N-[4-[5-[2-(ethylsulfamoyl)-4-[(pyridin-2-yl)amino]phenyl]thiazol-2-yl]cyclohexyl]carbamate]: under 100 nM.

The assay is the same for the next values; noted with them: Homo sapiens, Daudi, 168 h, read-out: Cellular activity in AID + (Daudi).
Turning to `CCNS(=O)(=O)c1cc(Cc2ncco2)ccc1-c1cnc([C@H]2CC[C@H](NC(=O)OC(C)C)CC2)s1` [Compound 103, isopropyl trans-N-[4-[5-[2-(ethylsulfamoyl)-4-(oxazol-2-ylmethyl)phenyl]thiazol-2-yl]cyclohexyl]carbamate], the EC50 fell in the range of 100 to 1000 nM.
On the same count and under the same terms, the same measure for `CCNS(=O)(=O)c1cc(-c2ncco2)ccc1-c1cnc([C@H]2CC[C@H](NC(=O)OC(C)C)CC2)s1` [Compound 104, isopropyl trans-N-[4-[5-[2-(ethylsulfamoyl)-4-oxazol-2-yl-phenyl]thiazol-2-yl]cyclohexyl]carbamate]: 100 to 1000 nM; for `CCNS(=O)(=O)c1cc(Nc2ncc[nH]2)ccc1-c1cnc([C@H]2CC[C@H](NC(=O)OC3CC3)CC2)s1` [Compound 109, cyclopropyl trans-N-[4-[5-[2-(ethylsulfamoyl)-4-(1H-imidazol-2-ylamino)phenyl]thiazol-2-yl]cyclohexyl]carbamate]: 100 to 1000 nM.

For the origin of these results see US11932636B2, “RAD51 inhibitors” (Cyteir Therapeutics, Inc., priority 2019, dated 2024).
